This test has as its target T1, Low molecular weight protein-tyrosine phosphatase A (Mycobacterium tuberculosis, UniProt P9WIA1).
T1 sequence (P9WIA1 whole entry): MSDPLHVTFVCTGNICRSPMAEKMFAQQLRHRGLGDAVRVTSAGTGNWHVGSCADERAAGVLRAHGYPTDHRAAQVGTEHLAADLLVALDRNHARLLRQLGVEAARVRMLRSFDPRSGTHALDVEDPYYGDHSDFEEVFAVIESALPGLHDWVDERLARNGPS
The test is described as follows: Non-competitive inhibition of Mycobacterium tuberculosis PTPA using p-nitrophenyl phosphate as substrate by Lineweaver-Burk plot analysis.

SMILES strings stand for the structures.

What is called IC50 is the concentration that inhibits the measured activity by half. The Ki is the equilibrium dissociation constant of an inhibitor or competing ligand from its target. Higher therefore signals weaker binding.

The molecule `O=C(O)/C1=C/C#Cc2ccccc2C#CCCNC1=O` displayed an IC50 of 110 µM and a Ki of 22.5 µM.

`O=C(O)C1CCCc2ccccc2CCCCNC1=O` (racemic) registered an IC50 of 236 µM and a Ki of 101 µM.

Source of the values: ChEMBL document CHEMBL1781876, “Design, synthesis and inhibition activity of a novel cyclic enediyne amino acid conjugates against MPtpA” (Bioorg Med Chem, 2011).
